pEC50, pKd: −log10 of the molar value.
Legend:
OmKAI2d3–OmSMAX1D1M = tested on: T1, OmKAI2d3–OmSMAX1D1M; test: TR-FRET, ligand-induced KAI2d–SMAX1 D1M interaction; format: biochemical, Orobanche minor; details: without rac-GR24; 300 min
T1 construct: gene KAI2d3; KAI2d3 plus SMAX1 D1M domain only; ligand-induced complex in TR-FRET; borders and tags not given

OmKAI2d3 = biological target: T2, OmKAI2d3; test: isothermal titration calorimetry; format: binding, Orobanche minor; details: suggested allosteric site
T2 construct: gene KAI2d3; soluble recombinant protein

OmKAI2d9–OmSMAX1D1M = tested on: T3, OmKAI2d9–OmSMAX1D1M; test: TR-FRET, ligand-induced KAI2d–SMAX1 D1M interaction; format: biochemical, Orobanche minor; details: without rac-GR24; 300 min
T3 construct: gene KAI2d9; KAI2d9 plus SMAX1 D1M domain only; ligand-induced complex in TR-FRET; borders and tags not given

OmKAI2d10–OmSMAX1D1M = tested on: T4, OmKAI2d10–OmSMAX1D1M; test: as above; format: biochemical, Orobanche minor; details: without rac-GR24; 300 min
T4 construct: gene KAI2d10; KAI2d10 plus SMAX1 D1M domain only; ligand-induced complex in TR-FRET; borders and tags not given

CC/C=C\C[C@@H]1C(=O)C=C[C@@H]1CCCCCCCC(=O)O [cis-OPDA]
pEC50 (OmKAI2d3–OmSMAX1D1M): 3.66
pKd (OmKAI2d3): 4.70
pEC50 (OmKAI2d9–OmSMAX1D1M): 3.71
pEC50 (OmKAI2d10–OmSMAX1D1M): 3.98

From publication doi:10.64898/2025.12.31.697154v2, “Two phytohormones synergistically induce parasitic weeds seed germination via KAI2d receptors” (biorxiv, 2026)
